For twelve molecules, IC50 results are on record in ChEMBL document CHEMBL3621190, “Fused Morphlinopyrimidines and Methods of Use Thereof” (ACS Med Chem Lett, 2015).

The test has as its target Gamma-secretase. Briefly: Inhibition of gamma-secretase in human H4 cells expressing human wild type […] cDNA assessed as reduction in amyloid beta peptides incubated for 16 to 18 hrs by ELISA method. Format: cell-based.
The term IC50 denotes the midpoint of a concentration-inhibition curve. On to `Cc1ccccc1N1CCOc2cnc(NC3CCN(c4ccnc(Cl)c4)CC3)nc21`, for which the IC50 was found to be 90 nM.
As for `COc1cc(N2CCC(Nc3ncc4c(n3)N(c3cc(F)cc(F)c3)CCO4)CC2)ccn1`, the IC50 was found to be 25.6 nM.
Under `COc1cc(N2CCC(Nc3ncc4c(n3)N(c3ccccc3)CCO4)CC2)ccn1` stands 25.2 nM.
Under `Clc1cc(N2CCC(Nc3ncc4c(n3)N(c3ccccc3)CCO4)CC2)ccn1` stands 54.3 nM.
Turning to `COc1cc(N2CCC(Nc3ncc4c(n3)N(c3ccccc3C)CCO4)CC2)ccn1`, the half-maximal inhibitory concentration (IC50) was determined as 58.5 nM.
As to `COc1cc(N2CCC(Nc3ncc4c(n3)N(c3ccccc3Cl)CCO4)CC2)ccn1`, the half-maximal inhibitory concentration (IC50) is 54.8 nM.
The result for `COc1cc(N2CCC(Nc3ncc4c(n3)N(c3ccccc3OC(F)(F)F)CCO4)CC2)ccn1` reads 20.8 nM.
The result for `COc1cc(N2CCC(Nc3ncc4c(n3)N(c3cc(F)c(F)c(F)c3)CCO4)CC2)ccn1` reads 56 nM.
Under `COc1cc(N2CCC(Nc3ncc4c(n3)N(c3ccc(F)cc3F)CCO4)CC2)ccn1` stands 72.4 nM; under `COc1cc(N2CCC(Nc3ncc4c(n3)N(c3ccc(Cl)cc3)CCO4)CC2)ccn1`, 25.4 nM; under `COc1cc(N2CCC(Nc3ncc4c(n3)N(c3ccc(F)cc3C(F)(F)F)CCO4)CC2)ccn1`, 11.9 nM.
As for `COc1cc(N2CCC(Nc3ncc4c(n3)N(c3ccc(F)cc3)CCO4)CC2)ccn1`, the IC50 was determined as 30.5 nM.
